# Key:
# Format in all cases: in vivo, mouse
# WT mice retina = assay: RT-PCR retinal gene expression, WT mice
# Method: (§1) Whole retinas were isolated from animals by removing the sclera and most of the retinal pigmented epithelium (RPE) layer under PBS. The right eye retinas from each animal were taken for RNA extraction, cDNA preparation and RT-PCR. Immediately after isolation, tissue was flash frozen in liquid nitrogen and stored at −80° C. Left eye retinas from each animal were subjected to fixation, cryopreservation, sectioning, and immunofluorescence staining. RNA extraction and purification followed the manufacturer's protocol from RNeasy Mini Kit and RNA shredder (Qiagen). […] Primers purchased from Integrated DNA Technologies (IDT). For quantitative real-time PCR we used 2× iQ-SYBR Green PCR supermix from Bio-Rad. Samples in triplicate were run on an iQ5 Multicolor Real Time PCR Detection System (Bio-Rad). The relative expression level for each gene was calculated by the 2-ΔΔCt method and normalized to GAPDH.
# rd10 mice [1] = assay: GSK2879552 in artificial tears applied to the eyes of rd10 mice, rod gene expression; conditions: solution in artificial tears, daily to both eyes, 5 μl
# Method: A solution of GSK2879552 was prepared in artificial tears and applied daily to both eyes of rd10 mice in a volume of 5 μl.
# H3K4me2, H3K9me2 [2] = assay: Chromatin immunoprecipitation (ChIP) on gene regulatory elements, WT retina; conditions: WT mice, GSK PN9 till PN24
# Method: Lysate preparation for ChIP was carried out. In brief, 10 mouse retinas were rapidly isolated and rinsed in PBS on ice. Cell suspensions in PBS were crosslinked with 1% formaldehyde for 15 min at room temperature, followed by quenching with 1 M glycine, incubation on ice for 5 min, and centrifugation for 7 min at 4,000 rpm at 4° C. Pellets were resuspended in 500 μl L-CHIP buffer (1% SDS, 10 mM EDTA, 50 mM Tris-HCl pH 8.0), 1 mM PMSF and PI, sonicated twice at setting 3 for 10 sec on Sonic Dismembrator (Fisher Scientific, Model 100). Protein concentrations were adjusted to 1 mg/ml with L-CHIP buffer. ChIP was performed and subjected to quantitative PCR, primers for genomic regions are specified in Table 2.
# H3K4me2, H3K9me2 [3] = assay: Anti-H3K4me2 and anti-H3K9me2 Western blot of WT retina; conditions: WT mice treated PN9 till PN24
# Method: (§2) Both retinas from one animal were flash frozen together in liquid nitrogen and stored at −80° C. Samples for SDS-PAGE were prepared by resuspended retinas in 50 μl PBS. Laemmli sample buffer was added, samples were boiled for 10 min, resolved on Criterion TGX Precast Gel AnyKD (Bio-Rad), transferred to nitrocellulose membrane, and immunoblotted with antibodies anti-H3K9me2 or anti-H3K4me2 diluted 1:5000; anti-ACTB diluted 1:10000; anti-PDE6B (1:500). Secondary goat anti-rabbit/mouse HRP (Jackson Immuno-Research Laboratory, West Grove, PA) was diluted 1:5000. An ECL western blot detection system (Thermo Fisher Scientific) was used to visualize the bound of the primary antibody.
# GFAP, IBA1 = assay: Immunofluorescence labeling of GFAP and IBA1 in retina sections; conditions: rd10, treated PN9 till PN24
# Method: Fluorescence intensity was assessed using ImageJ software (Bethesda, MD).
# rd10 mice retina = assay: RT-PCR retinal gene expression, rd10 mice
# Method: as §1
# rd10 mice [4] = assay: Visual function by OptoMotry optomotor reflex; conditions: GSK ESD
# Method: A Cerebral Mechanics OptoMotry system (CerebralMechanics Inc.) was used to evaluate visual function in control and GSK ESD rd10 mice. Spatial frequency (SF) threshold and contrast sensitivity (CS) were assessed using a video camera to monitor optomotor reflex. CS was assessed at a SF of 0.092 cycles/degree. SF was assessed at 100% contrast. The CS and SF thresholds were identified as the highest values that elicited the reflexive head movement. […] CS were measured three times on PN33-35, when control mice were blind.
# Pde6b protein = assay: Anti-PDE6B Western blot of retina; conditions: rd10 mice, GSK PN9 till PN24 vs saline
# Method: as §2
# [5] = GSK PN9 till PN24, compared with WT
# [6] = treated PN9 till PN24 vs saline
smiles,measurement,setting,value
"O=C(O)c1ccc(CN2CCC(CN[C@@H]3C[C@H]3c3ccccc3)CC2)cc1 [GSK, GSK2879552]",expression of rod photoreceptor genes,WT mice retina; WT mice treated PN9 till PN24,no changes
same,expression of transcription factors of retina development and maturation,"WT mice retina; WT retinas, treated PN9 till PN24",slightly increased expression
same,rod specific gene expression after topical application,rd10 mice [1],Several rod specific genes were upregulated
same,"H3K4me2 at promoters/regulatory elements (Ccnd1, Sox2, Hes1, Rho, Pde6b)","H3K4me2, H3K9me2 [2]",increase in the methylation of H3K4
same,H3K9me2 at regulatory elements of progenitor TF and rod specific genes,"H3K4me2, H3K9me2 [2]",losing this inhibitory mark
same,global levels of H3K4me2,"H3K4me2, H3K9me2 [3]",did not change significantly
same,global levels of H3K9me2,"H3K4me2, H3K9me2 [3]",No changes
same,Gfap gene expression and GFAP protein labeling (gliosis),"GFAP, IBA1",reductions in Muller cell activation
same,IBA1 labeling (microglia),"GFAP, IBA1; levels remained above WT",decreased
same,expression of cone genes except S-opsin,rd10 mice retina; GSK ESD PN9 till PN24,increased to WT levels
same,"expression of Rho, Prph2, Nr2e3, Nrl, and Pde6b",rd10 mice retina; [5],increased dramatically and reached WT level
same,"expression of Sag, Rom1, Crx, Cnga1 and Cngb1",rd10 mice retina; [5],"increased, but not to the WT level"
same,"RNA levels of H2-Aa, C1qa, Aif1 and Cx3cr1",rd10 mice retina; GSK PN9 till PN24 vs saline,reduced
same,expression of cone markers,"rd10 mice retina; GSK daily, PN24, rd10 slightly lower than WT",did not change it
same,gene expression of INL cell types,"rd10 mice retina; GSK from PN30 till PN40, assayed PN40",did not change
same,expression of Rgr and Hes5,rd10 mice retina; GSK treatment of rd10 mice,increase
same,expression of rod photoreceptor genes relative to GAPDH,"rd10 mice retina; treated PN9 till PN24, assayed PN24, vs saline",increased expression of almost all rod genes
same,expression of most other retina cell type markers,"rd10 mice retina; treated PN9 till PN24, except Rgr and Hes5",appeared to be decreased
same,expression of Capn2 and Aifm1,rd10 mice retina; [6],somewhat decreased
same,"expression of apoptotic specific genes Bcl2, Apaf1, and Casp9",rd10 mice retina; [6],slightly decreased
same,expression of cone genes Thrb or Gnat2,rd10 mice retina; [6],slightly up-regulated
same,contrast sensitivity preserved relative to WT,"rd10 mice [4]; 0.092 c/d, PN33-35",approximately 50%
same,spatial frequency threshold (acuity),"rd10 mice [4]; 100% contrast, PN24-PN32 averaged, untreated around 0.085, WT maximum 0.4",around 0.240 cyc/deg
same,contrast sensitivity,"rd10 mice [4]; at 0.092 c/d spatial frequency, PN33-35, WT maximum 95%",43.4+/−14.6%
same,vision preserved relative to WT acuity,rd10 mice [4]; rd10 mice,around 60%
same,acuity over time PN24 to PN32,rd10 mice [4]; data not shown,slowly increased
same,Pde6b protein in retina,Pde6b protein,three-fold increase
